Laboratory results as given in US7098245B2, “Polynucleotide cleavage agent switched on by photo irradiation” (Tottori University, priority 2002, dated 2006).

What was measured:
DNA = conditions: background, symposium report 2001; cited from earlier work
supercoiled φX174 DNA = experiment: DNA cleavage test using (R,R)- and (S,S)-11 (Xe lamp, 45 min); type: biochemical
Protocol: The reaction was carried out in a solvent of 20 mM sodium phosphate of pH 7.0 and 20% DMSO. Samples were irradiated for 45 min at a distance of 6 cm using Xe lamp using polystylene filter. Electrophoresis (0.8% agarose gel, TAE buffer, 100 V, 40 min). Gel was stained by EtBr and visualized by UV-B lamp (transillumnator).

[1] = Stability of the compound (sunlight in solution; after deprotection); type: physicochemical
Protocol: Part G. A solution of ester 5 (14.6 mg, 0.0307 mmol) in methanol (0.3 mL) was stirred at rt in the presence of Pd/C (3.0 mg, 20 wt %) under H2 (1 atm) for 15 h in the dark. The crude products were filtered through a sintered glass filter with a Celite pad, and the filtrate was dried under vacuo to afford the title compound (S,S)—NH2-mono(9.2 mg, 0.027 mmol) in 88% yield. This compound was unstable when dissolved in methanol or CHCl3 under the irradiation of sunlight; therefore, it should be kept under an argon atmosphere in a dark place.
The reaction was carried out in a flask that was covered by aluminum foil to keep out light. A solution of (R,R)-10 (18 mg, 0.038 mmol) in methanol (1.0 mL) was stirred at rt in the presence of Pd/C (5.4 mg, 30 wt %) under H2 (1 atom) for 5 days and filtered though a glass sintered glass filter with a Celite pad. The filtrate was evaporated under reduced pressure to give (R,R)—NH2-mono (9.9 mg, […]). This compound was unstable when dissolved in methanol or CHCl3 under the irradiation of sunlight; therefore, it should be kept under an argon atmosphere in a dark place.

supercoiled φX-174 DNA = experiment: DNA cleavage test under photo-irradiation (Xe lamp with polystylene filter, 2 hrs); type: biochemical
Protocol: (§1) DNA cleavage test using (S,S)—NH2-mono under photo-irradiation φX174 RFI DNA (New England BioLabs, N3021S, 150 ┌M) (1 ┌L) was dissolved in a 10 mM sodium phosphate buffer pH 7.0 (9 ┌L) in a micro tube.
(§2) Ethyl 9-anthracene carboxylate (anth-OEt) was used as a control compound. Three samples were prepared: a buffer solution of DNA, a mixture of anth-OEt with a buffer solution of DNA, and a mixture of (S,S)—NH2-mono with a buffer solution of DNA. These samples were placed under a UV-A lamp (max=365 nm, trans illuminator) at a distance of 4 cm, and irradiated for 3 h. The resulting mixture was subjected to an electrophoresis experiment ([…], TAE buffer, 100 V, 30 min). The resulting agarose gel was stained with ethidium bromide (EtBr), visualized by UV-B lamp and the DNA cleavage ratio was determined by NIH Image 1.62.
The test was carried out using (R,R)— and (S,S)—NH2-mono in the same manner as described in Example 2 except that the test samples were placed under a Xe lamp with a polystylene filter at a distance of 3 cm and irradiated for 2 hrs.

φX174 RFI DNA = experiment: DNA cleavage test under photo-irradiation (UV-A lamp 365 nm, 3 h), agarose gel electrophoresis; type: biochemical; conditions: 4 cm, 10 mM sodium phosphate pH 7.0, samples 1, 5, 12 mM, 1 ┌L
Protocol: as §1, §2
The increased ratio of nicked DNA means that DNA was cleaved by the experimental conditions.

[2] = Xe lamp, polystylene filter, 3 cm, 2 hrs

| stability after deprotection of the amino protecting group [1] | stability when dissolved in methanol or CHCl3 under irradiation of sunlight [1] | SMILES | concentration required to convert supercoiled DNA to the nicked type DNA (supercoiled φX-174 DNA; [2]) | DNA cleavage activity (φX174 RFI DNA) | also measured |
| --- | --- | --- | --- | --- | --- |
| – | – | O=C(OCC1C(COC(=O)c2c3ccccc3cc3ccccc23)C1(F)F)c1c2ccccc2cc2ccccc12 (stereo not drawn) [9-anthracene carboxylic diester of 1,3-bishydroxymethyl-2,2-difluoro-cyclopropane] | – | – | DNA cleavage activity (DNA): no significant DNA cleavage activity |
| – | – | O=C(NC[C@H]1[C@H](CO)C1(F)F)c1c2ccccc2cc2ccccc12 [(R,R)-11, (R,R)-2,2-difluoro-3-hydroxymethyl-cyclopropylmethyl anthracene-9-carboxamide] | – | – | equivalent versus the DNA base pair at that concentration (supercoiled φX174 DNA; 20 mM sodium phosphate pH 7.0, 20% DMSO): 1.3 equivalent; concentration at which supercoiled DNA was converted to the nicked form (supercoiled φX174 DNA; 20 mM sodium phosphate pH 7.0, 20% DMSO, 6 cm): 100 µM; DNA cleavage activity (qualitative) (supercoiled φX174 DNA; FIG. 5): strong DNA cleavage activity |
| unstable | unstable | NC[C@H]1[C@H](COC(=O)c2c3ccccc3cc3ccccc23)C1(F)F [(R,R)—NH2-mono, (R,R)-3-aminomethyl-2,2-difluoro-cyclopropylmethyl anthracene-9-carboxylate] | 85.5 µM | – | DNA cleavage strength relative to the (S,S)-isomer (supercoiled φX-174 DNA; Xe lamp, 2 hrs): more than 10 times; equivalent versus supercoiled φX-174 DNA at the required concentration (supercoiled φX-174 DNA; [2]): 0.667 equivalent; activity relative to the corresponding (S,S)-isomer (description) (supercoiled φX-174 DNA; stated in detailed description): five times stronger activity |
| unstable | unstable | NC[C@@H]1[C@@H](COC(=O)c2c3ccccc3cc3ccccc23)C1(F)F [(S,S)—NH2-mono, (S,S)-3-aminomethyl-2,2-difluoro-cyclopropylmethyl anthracene-9-carboxylate] | 1200 µM | weak DNA cleavage agent | – |
| – | – | CCOC(=O)c1c2ccccc2cc2ccccc12 [anth-OEt, Ethyl 9-anthracene carboxylate, reference compound] | – | no significant activity | – |
